{
  "source": "paper PMC3073417",
  "about": "(The Journal of neuroscience : the official journal of the …, 2011)",
  "target": "hTRPA1 (Homo sapiens, UniProt O75762)",
  "sequence (O75762 whole entry)": "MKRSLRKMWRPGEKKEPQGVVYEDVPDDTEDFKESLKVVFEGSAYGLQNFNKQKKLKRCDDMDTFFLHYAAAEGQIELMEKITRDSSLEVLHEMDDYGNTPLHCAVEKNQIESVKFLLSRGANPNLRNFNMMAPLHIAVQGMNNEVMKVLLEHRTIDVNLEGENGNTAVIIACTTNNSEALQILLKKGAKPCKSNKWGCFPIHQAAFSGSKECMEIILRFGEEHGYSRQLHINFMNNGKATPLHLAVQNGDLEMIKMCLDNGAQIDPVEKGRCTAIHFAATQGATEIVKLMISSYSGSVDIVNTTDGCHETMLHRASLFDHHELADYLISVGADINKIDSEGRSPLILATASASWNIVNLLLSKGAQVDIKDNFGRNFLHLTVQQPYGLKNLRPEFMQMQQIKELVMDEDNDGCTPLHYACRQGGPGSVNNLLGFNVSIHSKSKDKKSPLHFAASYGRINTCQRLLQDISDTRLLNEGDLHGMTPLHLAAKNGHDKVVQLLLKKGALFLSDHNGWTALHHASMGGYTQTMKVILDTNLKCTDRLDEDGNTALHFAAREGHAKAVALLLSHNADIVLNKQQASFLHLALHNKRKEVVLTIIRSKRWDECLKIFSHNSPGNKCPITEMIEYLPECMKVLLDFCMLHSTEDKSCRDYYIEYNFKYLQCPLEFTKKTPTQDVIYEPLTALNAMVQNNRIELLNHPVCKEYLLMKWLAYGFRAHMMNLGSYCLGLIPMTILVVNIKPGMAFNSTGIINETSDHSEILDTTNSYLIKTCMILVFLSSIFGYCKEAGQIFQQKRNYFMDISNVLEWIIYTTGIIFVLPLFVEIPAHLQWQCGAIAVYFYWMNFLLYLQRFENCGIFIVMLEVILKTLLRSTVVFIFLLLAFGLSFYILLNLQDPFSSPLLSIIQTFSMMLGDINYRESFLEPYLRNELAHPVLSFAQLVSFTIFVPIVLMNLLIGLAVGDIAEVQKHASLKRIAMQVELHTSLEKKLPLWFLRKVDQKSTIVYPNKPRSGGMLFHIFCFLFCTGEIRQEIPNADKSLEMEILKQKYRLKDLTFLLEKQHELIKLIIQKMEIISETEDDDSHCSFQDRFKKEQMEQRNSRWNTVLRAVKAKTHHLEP",
  "test": "whole-cell patch clamp of HEK293 cells expressing hTRPA1",
  "type": "cell-based",
  "data": [
    {"smiles": "C/C=C(/C=O)[C@@H](CC=O)CC(=O)OCCc1ccc(O)cc1", "note": "[OC, (−)-oleocanthal]", "values": [
      {"measurement": "EC50", "value": 2800, "unit": "nM"}
    ]}
  ]
}
